Laboratory results as given in PMC8466554, “Heteroaryl-Ethylenes as New Lead Compounds in the Fight against High Priority Bacterial Strains” (Antibiotics, 2021).
“And” between values parts separate entries of the source, which are not always exact repeats. Equal entries are not always repeated. Where two headings read alike, the source gives them in different places. Each block holds one compound with its values, some of them ahead of it.

Tests used:
P. aeruginosa ATCC27853 = assay: MIC microtiter plate assay; type: cell-based, Pseudomonas aeruginosa
[1] = tested on: Gram-positive and Gram-negative ATCC strains; assay: MIC and MBC, summary over Gram-positive and Gram-negative strains; type: cell-based; settings: by MBC/MIC ratio
[2] = tested on: E. faecalis ATCC29212-VSE; assay: MIC and MBC microtiter plate assay; type: cell-based
E. coli ATCC25922 = assay: MIC and MBC microtiter plate assay, also with different inocula; type: cell-based, Escherichia coli
[3] = tested on: E. faecalis ATCC51299-VRE; assay: as above; type: cell-based
CaCo-2 cells = assay: MTT cytotoxicity assay; type: cell-based, human; settings: 24 h of incubation relative to untreated controls
Experimental: To evaluate the biological activity of the PBn series, compounds were screened for toxicity against the colon-rectal cancer cell line CaCo-2 (ATCC HTB-37). These human cancer cells were treated with solutions of the compounds at decreasing concentrations, starting from 100 μM up to 0.01 μM. The reference compound used for these assays was 5-Fluorouracil (5-Fu), a pyrimidine analogue belonging to the family of antimetabolite. […] Briefly, human colorectal adenocarcinoma cells (CaCo-2 HTB-37^TM Colorectal Adenocarcinoma Human, American Type Culture Collection, Manassas, VA, USA) were grown in Dulbecco’s MEM (DMEM) with 10% heat-inactivated fetal bovine serum, 2 mM L-Alanyl-L-Glutamine, penicillin-streptomycin (50 units-50 μg for mL) and incubated at 37 °C in a humidified atmosphere of 5% CO2, 95% air. CaCo-2 cells were plated in 96 well pates and incubated at 37 °C. The PBn series compounds and 5-FU were prepared as a 1 mM solution in 10 mL with 0.01% DMSO. Then, 24 h after plating, cells were treated with 20 μL of each solution. Untreated cells were used as controls. […] The results were read on a multiwell scanning spectrophotometer (AF2200 plate reader, Eppendorf, Milan, Italy), using a wavelength of 569 nm.

S.aureus USA300-CAMRSA = assay: MIC and MBC microtiter plate assay; type: cell-based, Staphylococcus aureus
S.aureus Mu50-VISA = assay: MIC and MBC microtiter plate assay; type: cell-based, Staphylococcus aureus
S.aureus ATCC29213-MSSA = assay: MIC and MBC microtiter plate assay; type: cell-based, Staphylococcus aureus
[4] = tested on: K. pneumoniae ATCC BAA-2814; assay: MIC microtiter plate assay; type: cell-based, Klebsiella pneumoniae; settings: K. pneumoniae ATCC BAA-2814 (MDR strain)
S.aureus ATCC12598-MSSA = assay: MIC and MBC microtiter plate assay, also with different inocula; type: cell-based, Staphylococcus aureus
A. baumannii ATCC17978 = assay: as above; type: cell-based, Acinetobacter baumannii; settings: A. baumannii ATCC17978
K. pneumoniae ATCC700603 = assay: MIC microtiter plate assay; type: cell-based, Klebsiella pneumoniae
[5] = E. faecalis ATCC51299-VRE, value in brackets
[6] = S.aureus ATCC12598-MSSA, value in brackets

MIC (P. aeruginosa ATCC27853): > 128 µg/mL
MIC (P. aeruginosa ATCC27853; value in brackets): > 279.40 µM
MIC [2]: 32 µg/mL
MIC ([2]; value in brackets): 69.85 µM
MIC (E. coli ATCC25922): > 128 µg/mL
MIC (E. coli ATCC25922; value in brackets): > 279.40 µM
MIC ([3]; E. faecalis ATCC51299-VRE): 32 mg/L
MIC [3, 5]: 69.85 µM
MIC (S.aureus USA300-CAMRSA): 4 µg/mL
MIC (S.aureus USA300-CAMRSA; value in brackets): 8.73 µM
MIC (S.aureus Mu50-VISA): 4 µg/mL
MIC (S.aureus Mu50-VISA; value in brackets): 8.73 µM
MIC (S.aureus ATCC29213-MSSA): 4 µg/mL
MIC (S.aureus ATCC29213-MSSA; value in brackets): 8.73 µM
MIC [4]: > 128 µg/mL
MIC ([4]; value in brackets): > 279.40 µM
MIC (S.aureus ATCC12598-MSSA; S.aureus ATCC12598-MSSA): 8 mg/L
MIC (S.aureus ATCC12598-MSSA; [6]): 17.46 µM
MIC (A. baumannii ATCC17978): 64 µg/mL
MIC (K. pneumoniae ATCC700603): > 128 µg/mL
MIC (K. pneumoniae ATCC700603; value in brackets): > 279.40 µM
Structure (SMILES): C[n+]1ccc(/C=C/c2ccc(-c3cc(Cl)ccc3Cl)o2)cc1.F[P-](F)(F)(F)(F)F [PB6]
bactericidal/bacteriostatic activity [1]: strain-dependent bactericidal/bacteriostatic activity
IC50 (CaCo-2 cells): 6.79 µM and 6.8 µM

MIC (P. aeruginosa ATCC27853): > 128 µg/mL
MIC (P. aeruginosa ATCC27853; value in brackets): 281.10 µM
MIC [2]: 32 µg/mL
MIC ([2]; value in brackets): 70.28 µM
MIC (E. coli ATCC25922): 16 µg/mL
MIC (E. coli ATCC25922; value in brackets): 35.14 µM
MIC ([3]; E. faecalis ATCC51299-VRE): 32 mg/L
MIC [3, 5]: 70.28 µM
MIC (S.aureus USA300-CAMRSA): 2 µg/mL
MIC (S.aureus USA300-CAMRSA; value in brackets): 4.39 µM
MIC (S.aureus Mu50-VISA): 32 µg/mL
MIC (S.aureus Mu50-VISA; value in brackets): 70.28 µM
MIC (S.aureus ATCC29213-MSSA): 4 µg/mL
MIC (S.aureus ATCC29213-MSSA; value in brackets): 8.78 µM
MIC (S.aureus ATCC12598-MSSA; S.aureus ATCC12598-MSSA): 8 mg/L
MIC (S.aureus ATCC12598-MSSA; [6]): 17.57 µM
MIC (A. baumannii ATCC17978): 64 µg/mL
MIC (A. baumannii ATCC17978; value in brackets): 140.55 µM
MIC (K. pneumoniae ATCC700603): > 128 µg/mL
MIC (K. pneumoniae ATCC700603; value in brackets): > 281.10 µM
Structure (SMILES): C[n+]1c(/C=C/c2ccc(-c3ccccc3)s2)ccc2ccccc21.[I-] [PB3]
IC50 (CaCo-2 cells): 0.871 µM

MIC (P. aeruginosa ATCC27853): > 128 µg/mL
MIC (P. aeruginosa ATCC27853; value in brackets): > 236.94 µM
MIC [2]: 4 µg/mL
MIC ([2]; value in brackets): 7.40 µM
MIC (E. coli ATCC25922): 32 µg/mL
MIC (E. coli ATCC25922; value in brackets): 59.24 µM
MIC ([3]; E. faecalis ATCC51299-VRE): 4 mg/L
MIC [3, 5]: 7.40 µM
MIC ([3]; E. faecalis ATCC51299, inoculum 1.00101 (1 × 10^1 CFU/mL)): 0.5 mg/L and 0.93 μM
MIC ([3]; E. faecalis ATCC51299, inoculum 1.00102 (1 × 10^2 CFU/mL)): 1 mg/L and 1.85 μM
MIC ([3]; E. faecalis ATCC51299, inoculum 1.00103 (1 × 10^3 CFU/mL)): 1 mg/L and 1.85 μM
MIC ([3]; E. faecalis ATCC51299, inoculum 1.00104 (1 × 10^4 CFU/mL)): 1 mg/L and 1.85 μM
MIC ([3]; E. faecalis ATCC51299, inoculum 1.00105 (1 × 10^5 CFU/mL, standard)): 4 mg/L and 7.40 μM
MIC ([3]; E. faecalis ATCC51299, inoculum 1.00106 (1 × 10^6 CFU/mL)): 4 mg/L and 7.40 μM
MIC ([3]; E. faecalis ATCC51299, inoculum 1.00107 (1 × 10^7 CFU/mL)): 4 mg/L and 7.40 μM
MIC (S.aureus USA300-CAMRSA; value in brackets): 0.93 µM
MIC (S.aureus Mu50-VISA): 2 µg/mL
MIC (S.aureus Mu50-VISA; value in brackets): 3.70 µM
MIC (S.aureus ATCC29213-MSSA): 1 µg/mL
MIC (S.aureus ATCC29213-MSSA; value in brackets): 1.85 µM
MIC [4]: > 128 µg/mL
MIC ([4]; value in brackets): > 236.94 µM
MIC (S.aureus ATCC12598-MSSA; S. aureus ATCC12598, inoculum 1.00101 (1 × 10^1 CFU/mL)): 0.03 mg/L and 0.06 μM
MIC (S.aureus ATCC12598-MSSA; S. aureus ATCC12598, inoculum 1.00102 (1 × 10^2 CFU/mL)): 0.03 mg/L and 0.06 μM
MIC (S.aureus ATCC12598-MSSA; S. aureus ATCC12598, inoculum 1.00103 (1 × 10^3 CFU/mL)): 0.06 μM and 0.03 mg/L
MIC (S.aureus ATCC12598-MSSA; S. aureus ATCC12598, inoculum 1.00104 (1 × 10^4 CFU/mL)): 0.06 mg/L and 0.12 μM
MIC (S.aureus ATCC12598-MSSA; S. aureus ATCC12598, inoculum 1.00105 (1 × 10^5 CFU/mL, standard)): 4 mg/L and 7.40 μM
MIC (S.aureus ATCC12598-MSSA; S. aureus ATCC12598, inoculum 1.00106 (1 × 10^6 CFU/mL)): 4 mg/L and 7.40 μM
MIC (S.aureus ATCC12598-MSSA; S. aureus ATCC12598, inoculum 1.00107 (1 × 10^7 CFU/mL)): 8 mg/L and 14.81 μM
MIC (S.aureus ATCC12598-MSSA; S.aureus ATCC12598-MSSA): 4 mg/L
MIC (S.aureus ATCC12598-MSSA; [6]): 7.40 µM
MIC (A. baumannii ATCC17978): > 128 µg/mL
MIC (A. baumannii ATCC17978; value in brackets): > 236.94 µM
MIC (K. pneumoniae ATCC700603): > 128 µg/mL
MIC (K. pneumoniae ATCC700603; value in brackets): > 236.94 µM
Structure (SMILES): Clc1ccc(Cl)c(-c2ccc(/C=C/c3cc[n+](-c4ncccn4)cc3)o2)c1.F[P-](F)(F)(F)(F)F [PB5]
bactericidal/bacteriostatic activity [1]: strain-dependent bactericidal/bacteriostatic activity
MBC [2]: 128 µg/mL
MBC ([2]; value in brackets): 236.94 µM
MBC ([3]; E. faecalis ATCC51299-VRE): 128 µg/mL
MBC [3, 5]: 236.94 µM
IC50 (CaCo-2 cells): 3.9 µM
MBC (S.aureus USA300-CAMRSA): 4 µg/mL
MBC (S.aureus USA300-CAMRSA; value in brackets): 7.40 µM
MBC (S.aureus Mu50-VISA): 4 µg/mL
MBC (S.aureus Mu50-VISA; value in brackets): 7.40 µM
MBC (S.aureus ATCC29213-MSSA): 4 µg/mL
MBC (S.aureus ATCC29213-MSSA; value in brackets): 7.40 µM
MBC (S.aureus ATCC12598-MSSA; S.aureus ATCC12598-MSSA): 4 µg/mL
MBC (S.aureus ATCC12598-MSSA; [6]): 7.40 µM
